Data published in US6355799B1, “Substituted benzene compounds, process for their preparation, and herbicidal and defoliant compositions containing them” (ISK Americas Incorporated, priority 1997, dated 2002).

What was measured:
Type in all cases: in vivo
[1] = test system: field corn (Zea mays L., var. Dekalb 535, CORN); test: Pre-emerge test, crop safety; conditions: pre-emerge, rated 14 days after application, 0 = no damage, 100 = complete death
Outline: (§1)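 Applied at 15–1000 g ai/ha from acetone in 187 l/ha spray volume. Post-emergence applications included 0.25% v/v non-ionic surfactant and reached plants sown 8–21 days before. Pre-emergence applications were incorporated by surface watering. Efficacy or crop damage was rated on a 0–100 scale after 14 days.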

[2] = test system: upland rice (Oryza sp., var. Tebonnet, RICE); test: Pre-emerge test, crop safety; conditions: pre-emerge, rated 14 days after application, 0 = no damage, 100 = complete death
Outline: as §1

[3] = test system: field corn (Zea mays L., var. Dekalb 535, CORN); test: Post-emerge test, crop safety; conditions: phytotoxicity rating 0-100 (0 no damage, 100 complete death), 14 days after application
Outline: (§2)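 Herbicidal damage is scored 0 (none) to 100 (complete plant death) two weeks after a simulated field spray. Rates span 15–1000 g ai/ha, delivered in acetone at 187 l/ha. For post-emergence treatments, plants have 2–3 leaves and the spray carries 0.25% v/v non-ionic surfactant.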

[4] = test system: upland rice (Oryza sp., var. Tebonnet, RICE); test: Post-emerge test, crop safety; conditions: phytotoxicity rating 0-100 (0 no damage, 100 complete death), 14 days after application
Outline: as §2

[5] = test system: ivyleaf morningglory (Ipomoea hederacea, IPOHE); test: Post-emerge test, greenhouse herbicide activity screening; conditions: phytotoxicity rating 0-100 (0 no damage, 100 complete death), 14 days after application
Outline: (§3)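 Each test used a mechanized track sprayer delivering 187 l/ha of acetone solution at 15–1000 g ai/ha. Post-emerge foliage at 2–3 leaves was treated with added 0.25% v/v non-ionic surfactant and bottom-watered only. Injury was assessed on day 14, where 100 means total kill.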

[6] = test system: sicklepod (Cassia obtusifolia, CASOB); test: as above; conditions: phytotoxicity rating 0-100 (0 no damage, 100 complete death), 14 days after application
Outline: as §3

[7] = test system: green foxtail (Setaria viridis, SETVI); test: as above; conditions: phytotoxicity rating 0-100 (0 no damage, 100 complete death), 14 days after application
Outline: as §3

[8] = test system: redroot pigweed (Amaranthus retroflexus, AMARE); test: as above; conditions: phytotoxicity rating 0-100 (0 no damage, 100 complete death), 14 days after application
Outline: as §3

[9] = test system: common ragweed (Ambrosia artemisizfolia L., AMBEL); test: as above; conditions: phytotoxicity rating 0-100 (0 no damage, 100 complete death), 14 days after application
Outline: as §3

[10] = test system: velvetleaf (Abutilon theophrasti, ABUTH); test: as above; conditions: 63 g ai/ha; phytotoxicity rating 0-100 (0 no damage, 100 complete death), 14 days after application
Outline: as §3

[11] = test system: lambsquarters (Chenopodium album, CHEAL); test: as above; conditions: phytotoxicity rating 0-100 (0 no damage, 100 complete death), 14 days after application
Outline: as §3

[12] = test system: large crabgrass (Digitaria sanguinalis, DIGSA); test: as above; conditions: phytotoxicity rating 0-100 (0 no damage, 100 complete death), 14 days after application
Outline: as §3

[13] = test system: barnyardgrass (Echinochloa crus-galli, ECHCG); test: as above; conditions: phytotoxicity rating 0-100 (0 no damage, 100 complete death), 14 days after application
Outline: as §3

[14] = test system: johnsongrass (Sorghum halepense, SORHA); test: as above; conditions: phytotoxicity rating 0-100 (0 no damage, 100 complete death), 14 days after application
Outline: as §3

[15] = test system: redroot pigweed (Amaranthus retroflexus, AMARE); test: Pre-emerge test, greenhouse herbicide activity screening; conditions: pre-emerge, rated 14 days after application, 0 = no damage, 100 = complete death
Outline: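 Compounds in acetone were track-sprayed at 15-1000 g ai/ha (187 l/ha) on sandy loam pots: pre-emerge one day after seeding, post-emerge at 2-3 leaf stage with 0.25% v/v non-ionic surfactant. Phytotoxicity was rated 14 days later on a 0 (no damage) to 100 (complete death) scale.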

[16] = test system: ivyleaf morningglory (Ipomoea hederacea, IPOHE); test: as above; conditions: pre-emerge, rated 14 days after application, 0 = no damage, 100 = complete death
Outline: as §2

[17] = test system: sicklepod (Cassia obtusifolia, CASOB); test: as above; conditions: pre-emerge, rated 14 days after application, 0 = no damage, 100 = complete death
Outline: as §2

[18] = test system: green foxtail (Setaria viridis, SETVI); test: as above; conditions: pre-emerge, rated 14 days after application, 0 = no damage, 100 = complete death
Outline: as §2

[19] = test system: common ragweed (Ambrosia artemisizfolia L., AMBEL); test: as above; conditions: pre-emerge, rated 14 days after application, 0 = no damage, 100 = complete death
Outline: as §2

[20] = test system: velvetleaf (Abutilon theophrasti, ABUTH); test: as above; conditions: pre-emerge, rated 14 days after application, 0 = no damage, 100 = complete death
Outline: as §2

[21] = test system: lambsquarters (Chenopodium album, CHEAL); test: as above; conditions: pre-emerge, rated 14 days after application, 0 = no damage, 100 = complete death
Outline: as §2

[22] = test system: large crabgrass (Digitaria sanguinalis, DIGSA); test: as above; conditions: pre-emerge, rated 14 days after application, 0 = no damage, 100 = complete death
Outline: as §2

[23] = test system: barnyardgrass (Echinochloa crus-galli, ECHCG); test: as above; conditions: pre-emerge, rated 14 days after application, 0 = no damage, 100 = complete death
Outline: as §2

[24] = test system: johnsongrass (Sorghum halepense, SORHA); test: as above; conditions: pre-emerge, rated 14 days after application, 0 = no damage, 100 = complete death
Outline: as §2

## COc1c(Cl)cc(F)c(-n2c(=O)cc(C(F)(F)F)n(C)c2=O)c1N1CCCC1 [Compound 1-32]
[1]; 63 g ai/ha
  Pre-emerge crop damage CORN (phytotoxicity rating, scale 0-100): 0
[1]; 250 g ai/ha
  Pre-emerge crop damage CORN (phytotoxicity rating, scale 0-100): 0
[2]; 63 g ai/ha
  Pre-emerge crop damage RICE (phytotoxicity rating, scale 0-100): 20
[2]; 250 g ai/ha
  Pre-emerge crop damage RICE (phytotoxicity rating, scale 0-100): 40
[3]; 63 g ai/ha
  Post-emerge Herbicidal Activity CORN (crop damage): 0
[3]; 250 g ai/ha
  Post-emerge Herbicidal Activity CORN (crop damage): 0
[4]; 63 g ai/ha
  Post-emerge Herbicidal Activity RICE (crop damage): 0
[4]; 250 g ai/ha
  Post-emerge Herbicidal Activity RICE (crop damage): 0
[5]; 63 g ai/ha
  Post-emerge Herbicidal Activity IPOHE: 0
[5]; 250 g ai/ha
  Post-emerge Herbicidal Activity IPOHE: 70
[6]; 63 g ai/ha
  Post-emerge Herbicidal Activity CASOB: 0
[6]; 250 g ai/ha
  Post-emerge Herbicidal Activity CASOB: 0
[7]; 63 g ai/ha
  Post-emerge Herbicidal Activity SETVI: 0
[7]; 250 g ai/ha
  Post-emerge Herbicidal Activity SETVI: 0
[8]; 63 g ai/ha
  Post-emerge Herbicidal Activity AMARE: 10
[8]; 250 g ai/ha
  Post-emerge Herbicidal Activity AMARE: 30
[9]; 63 g ai/ha
  Post-emerge Herbicidal Activity AMBEL: 0
[9]; 250 g ai/ha
  Post-emerge Herbicidal Activity AMBEL: 30
[10]
  Post-emerge Herbicidal Activity ABUTH: 30
[11]; 63 g ai/ha
  Post-emerge Herbicidal Activity CHEAL: 0
[11]; 250 g ai/ha
  Post-emerge Herbicidal Activity CHEAL: 60
[12]; 63 g ai/ha
  Post-emerge Herbicidal Activity DIGSA: 0
[12]; 250 g ai/ha
  Post-emerge Herbicidal Activity DIGSA: 0
[13]; 63 g ai/ha
  Post-emerge Herbicidal Activity ECHCG: 0
[13]; 250 g ai/ha
  Post-emerge Herbicidal Activity ECHCG: 0
[14]; 63 g ai/ha
  Post-emerge Herbicidal Activity SORHA: 0
[14]; 250 g ai/ha
  Post-emerge Herbicidal Activity SORHA: 0
[15]; 63 g ai/ha
  Pre-emerge Herbicidal Activity AMARE (phytotoxicity rating, scale 0-100): 0
[15]; 250 g ai/ha
  Pre-emerge Herbicidal Activity AMARE (phytotoxicity rating, scale 0-100): 100
[16]; 63 g ai/ha
  Pre-emerge Herbicidal Activity IPOHE (phytotoxicity rating, scale 0-100): 0
[16]; 250 g ai/ha
  Pre-emerge Herbicidal Activity IPOHE (phytotoxicity rating, scale 0-100): 50
[17]; 63 g ai/ha
  Pre-emerge Herbicidal Activity CASOB (phytotoxicity rating, scale 0-100): 40
[17]; 250 g ai/ha
  Pre-emerge Herbicidal Activity CASOB (phytotoxicity rating, scale 0-100): 40
[18]; 63 g ai/ha
  Pre-emerge Herbicidal Activity SETVI (phytotoxicity rating, scale 0-100): 0
[18]; 250 g ai/ha
  Pre-emerge Herbicidal Activity SETVI (phytotoxicity rating, scale 0-100): 100
[19]; 63 g ai/ha
  Pre-emerge Herbicidal Activity AMBEL (phytotoxicity rating, scale 0-100): 0
[19]; 250 g ai/ha
  Pre-emerge Herbicidal Activity AMBEL (phytotoxicity rating, scale 0-100): 50
[20]; 63 g ai/ha
  Pre-emerge Herbicidal Activity ABUTH (phytotoxicity rating, scale 0-100): 90
[20]; 250 g ai/ha
  Pre-emerge Herbicidal Activity ABUTH (phytotoxicity rating, scale 0-100): 100
[21]; 63 g ai/ha
  Pre-emerge Herbicidal Activity CHEAL (phytotoxicity rating, scale 0-100): 90
[21]; 250 g ai/ha
  Pre-emerge Herbicidal Activity CHEAL (phytotoxicity rating, scale 0-100): 100
[22]; 63 g ai/ha
  Pre-emerge Herbicidal Activity DIGSA (phytotoxicity rating, scale 0-100): 0
[22]; 250 g ai/ha
  Pre-emerge Herbicidal Activity DIGSA (phytotoxicity rating, scale 0-100): 100
[23]; 63 g ai/ha
  Pre-emerge Herbicidal Activity ECHCG (phytotoxicity rating, scale 0-100): 0
[23]; 250 g ai/ha
  Pre-emerge Herbicidal Activity ECHCG (phytotoxicity rating, scale 0-100): 95
[24]; 63 g ai/ha
  Pre-emerge Herbicidal Activity SORHA (phytotoxicity rating, scale 0-100): 0
[24]; 250 g ai/ha
  Pre-emerge Herbicidal Activity SORHA (phytotoxicity rating, scale 0-100): 30
